Common to all, as to assay type: cell-based
The test system of experiment [1] is HepG2 cells. The experiment is described as follows: Intracellular ATP levels (CellTiter-Glo) under DOX. To be noted: donor 25 μM, 4 h pretreatment, DOX 5 μM 24 h. As to the method: (§1) Figure 6. a) Basal sulfane sulfur (SS) levels in H9c2 cardiomyocyte, MDA-MB-468, MCF-7, and HepG2 cell lines as detected by SSP4 fluorescence. b) Representative images and c) basal levels of mitochondrial membrane potential (MMP) in H9c2 and cancer cells (MDA-MB-468, MCF-7, and HepG2). d) Impact of APT-1 (25 μM) or APT-1-TPP (25 μM) on MMP in DOX (5 μM)-treated (d) H9c2 and e) HepG2 cells. Impact of APT-1 (25 μM) and APT-1-TPP (25 μM) on ATP levels in DOX (5 μM)-treated f) H9c2 and g) HepG2 cells. Results are expressed as mean ± SEM, n = 3–6; *P < 0.05, **P < 0.01, ***P < 0.001, ****P < 0.0001. Significances in (a) and (c) are presented with respect to H9c2 cells.
(§2) We then examined how RSSH donors influence MMP during DOX exposure. As expected, DOX alone induced mitochondrial depolarization in H9c2 cells, reducing MMP to ca. 50% of control (Figure 6d). […] To complement these observations, we quantified intracellular ATP levels as a functional readout of mitochondrial activity. […]
(§3) Briefly, H9c2 cells and HepG2 cells were seeded in 96-well white-bottom plate (Alkali Scientific, SKU:TPW9096, TC-treated) at 5000 cells/well. After treatment (Ctrl, 5 μM DOX alone, 4 h pretreatment of 25 μM APT-1 + 24 h cotreatment with 5 μM DOX, and 4 h pretreatment of 25 μM APT-1-TPP + 24 h cotreatment with 5 μM DOX, in clear DMEM medium with 10% FBS), cells were equilibrated at rt for 30 min before CellTiter-Glo® reagent was added to each well. Plates were then placed on an orbital shaker for 2 min and incubated at rt for another 20 min.
(§4) Chemiluminescence was measured using Tecan plate reader (SPARK Part No. 30124664 Version 1.7, serial No. 1909010319). Cellular AT P concentration was calculated based on the AT P calibration curve and normalized to cell count. […] Each treatment condition was performed in 6 technical replicates per biological replicate, and the experiment was independently repeated three times (n = 3 biological replicates).
(§5) Data are presented as mean ± SEM. […]

In experiment [2] the test system is H9c2 cells. The experiment is described as follows: Intracellular ATP levels (CellTiter-Glo) under DOX. Conditions: donor 25 μM, 4 h pretreatment, DOX 5 μM 24 h. As to the method: as §1, §2, §3, §4, §5
Experiment [3] has as its system H9c2 cells. In words: Intracellular RSSH analysis by LC-MS/MS after subcellular fractionation. To be noted: 200 μM, 2 h; for HPE-AM adducts of Cys-SSH and GSSH, cytoplasmic fraction: vs vehicle; for Cys-SH and GSH in mitochondria: did not reach statistical significance. Here is the method: After confirming efficient esterase-triggered RSSH generation from these newly developed precursors in PBS (pH 7.4), we next evaluated their ability to release RSSH in cardiac cells. […] H9c2 cells were treated with each donor (200 μM, 2 h), followed by subcellular fractionation using differential centrifugation to isolate cytoplasmic and mitochondrial fractions. Each fraction was subsequently incubated with the RSSH-trapping agent HPE-IAM (5 mM in methanol) to alkylate and stabilize transient RSSH species. The resulting adducts were analyzed by LC–MS/MS.[40, 41] In the cytoplasmic fraction, both donors increased HPE-AM adducts of Cys-SSH and GSSH, with APT-1 showing higher levels than APT-1-TPP (Figure 3a,b).
Figure 3. Measurement of cysteine hydropersulfide (Cys-SSH) and glutathione hydropersulfide (GSSH) in cytoplasm (a and b) and mitochondria (c and d) of H9c2 cells. Cells were treated with APT-1 (200 μM), APT-1-TPP (200 μM), or vehicle (0.01% DMSO in serum-free medium) for 2 h, followed by subcellular fractionation. Each fraction was incubated with HPE-IAM (5 mM, 30 min) to trap RSSH species prior to LC–MS/MS analysis. Data are mean ± SEM (n = 3); *p ≤ 0.05, **p ≤ 0.01. […]
Intracellular RSSH Analysis by LC-MS
H9c2 cells were cultured in 150-mm dishes to 80–90% confluency and treated for 2 h with either control medium (FBS-free DMEM, 0.01% DMSO) or 200 μM RSSH donors (FBS-free DMEM with APT-1 or APT-1-TPP). Cells were washed two times with warm PBS, collected by scraping, and centrifuged at 1,000 × g for 10 min at 4 °C (Sorvall ST 8R, ThermoFisher). Pellets were resuspended in 0.6 mL sucrose buffer; ¼ was reserved for BCA assay and ¾ used for fractionation. Cells were lysed on ice by 20 passages through a 26-G needle and centrifuged at 1,500 × g for 10 min at 4 °C (Z 216 MK, HERMLE). Pellets (nuclear/debris fraction) were collected, and supernatants were centrifuged at 12,000 × g for 10 min at 4 °C. Pellets (mitochondrial fraction) and supernatants (cytoplasmic fraction) were collected. Each of these fractions were resuspended in methanol containing 5 mM HPE-IAM, sonicated (3 × 10 s on/10 s off, Branson Sonifier SFX150), incubated at 37 °C for 30 min, and centrifuged at 16,000 × g for 10 min at 4 °C.
Supernatants were analyzed by MRM LC-MS/MS (Ultivo Triple Quadrupole, Agilent) using a Poroshell 120 EC-C18 column (4.6 × 100 mm, 2.7 μm; Agilent) at 30 °C, 0.6 mL/min, with the following gradient (solvent A: water + 0.1% TFA; solvent B: acetonitrile + 0.1% TFA): 0–1.5 min, […]
min, 97% A. Injection volume: 10 μL. Experiments were performed in triplicate (n = 3 biological replicates). Data are shown as mean ± SEM. […]
Ta b l e S1. MRM parameters for LC-MS/MS
Analyte Polarity Precursor ion Product ion Collision energy
Figure S21. Measurement of H2S2, and H2S in cytoplasm (A, B) and mitochondria (C,D) of H9c2 cells treated with APT-1 (200 µM) APT-1-TPP (200 µM), or vehicle (0.01% DMSO in serum-free medium) for 2 h. Data are mean ± SEM (n = 3); *p ≤ 0.05, **p ≤ 0.01.
Figure S22. Measurement of Cys-SH and GSH in cytoplasm (A, B) and mitochondria (C, D) of H9c2 cells […]
Cytotoxicity Assessment of Hydropersulfide Precursors in H9c2 and HepG2 cells Cell viability was measured using the Cell Counting Kit-8 (CCK-8, Dojindo).[7] H9c2 cardiomyoblast and HepG2 cells were seeded at a density of 8 × 10³ cells/well in a 96-well plate (flat-bottom, tissue culture-treated). […]

Consider `COC(=O)C(NC(C)=O)C(C)(C)SSC(=O)N(C)CCOC(C)=O` (stereo not shown) [APT-1], for which, in experiment [1], the “effect on DOX-induced ATP depletion” value was “neither donor rescued DOX-induced ATP depletion”. Further, the “effect on DOX-reduced ATP levels” value in experiment [2] is “restored”. Besides, in experiment [3], the “Cys-SH and GSH in the cytoplasm” value was “significant increases”; the “H2S and H2S2 levels in the cytoplasm” value was “elevated”; the “HPE-AM adducts of Cys-SSH and GSSH, cytoplasmic fraction” value is “increased”; the “Cys-SH and GSH in mitochondria” value was “modest increases”.
As to `CC(=O)NC(C(=O)N(C)CCC[P+](c1ccccc1)(c1ccccc1)c1ccccc1)C(C)(C)SSC(=O)N(C)CCOC(C)=O` (stereo not shown) [APT-1-TPP], in experiment [1], the “effect on DOX-induced ATP depletion” value is “neither donor rescued DOX-induced ATP depletion”. Also, in experiment [2], the “effect on DOX-reduced ATP levels” value is recorded as “restored”. Besides, in experiment [3], the “Cys-SH and GSH in the cytoplasm” value was “significant increases”; the “H2S and H2S2 levels in mitochondria” value is listed as “elevated”; the “HPE-AM adducts of Cys-SSH and GSSH, cytoplasmic fraction” value is reported as “increased”; the “Cys-SH and GSH in mitochondria” value is recorded as “modest increases”. Moreover, the “Cys-SSH and GSSH adducts, mitochondrial fraction” value in experiment [3] (compared with APT-1) is reported as “substantially higher levels”.

For the origin of these results see article PMC13224100, “Esterase-Responsive Mitochondria-Targeted Hydropersulfide Donors Mitigate Doxorubicin Cardiotoxicity While Preserving Anticancer Activity” (Angewandte Chemie (International ed. in English), 2025).
